Measurements from ChEMBL document CHEMBL4138123, “Design, synthesis and biological evaluation of novel pyrazolochalcones as potential modulators of PI3K/Akt/mTOR pathway and inducers of apoptosis in breast cancer cells” (Eur J Med Chem, 2017).

Key:
BT-549 [1] = assay: Cytotoxicity against human BT549 cells assessed as cell growth at 100 uM after 48 hrs by sulforhodamine B assay relative to control; type: functional; settings: BT-549, 48 h, read-out: Activity
SNB-19 = assay: Cytotoxicity against human SNB19 cells assessed as cell growth at 10 uM after 48 hrs by sulforhodamine B assay relative to control; type: functional; settings: SNB-19, 48 h, read-out: Activity
SK-MEL-28 [2] = assay: Cytotoxicity against human SK-MEL-28 cells assessed as cell growth at 0.1 uM after 48 hrs by sulforhodamine B assay relative to control; type: functional; settings: SK-MEL-28, 48 h, read-out: Activity
UO-31 = assay: Cytotoxicity against human UO31 cells assessed as growth inhibition after 48 hrs by sulforhodamine B assay; type: functional; settings: UO-31, 48 h
CCRF-CEM [3] = assay: Cytotoxicity against human CCRF-CEM cells assessed as cell growth at 1 uM after 48 hrs by sulforhodamine B assay relative to control; type: functional; settings: read-out: Activity
HT-29 = assay: Cytotoxicity against human HT-29 cells assessed as cell growth at 10 uM after 48 hrs by sulforhodamine B assay relative to control; type: functional; settings: HT-29, 48 h, read-out: Activity
MDA-MB-231 [4] = assay: Cytotoxicity against human MDA-MB-231 cells assessed as growth inhibition after 48 hrs by MTT assay; type: functional, cell-based; settings: MDA-MB-231, 48 h
HL-60(TB) = assay: Cytotoxicity against human HL-60(TB) cells assessed as cell growth at 1 uM after 48 hrs by sulforhodamine B assay relative to control; type: functional; settings: HL-60, 48 h, read-out: Activity
SK-MEL-28 [5] = assay: Cytotoxicity against human SK-MEL-28 cells assessed as cell growth at 1 uM after 48 hrs by sulforhodamine B assay relative to control; type: functional; settings: SK-MEL-28, 48 h, read-out: Activity
UACC-257 = assay: Cytotoxicity against human UACC257 cells assessed as growth inhibition after 48 hrs by sulforhodamine B assay; type: functional; settings: UACC-257, 48 h
RXF 393 [6] = assay: Cytotoxicity against human RXF393 cells assessed as cell growth at 100 uM after 48 hrs by sulforhodamine B assay relative to control; type: functional; settings: RXF 393, 48 h, read-out: Activity
Malme-3M = assay: Cytotoxicity against human MALME-3M cells assessed as growth inhibition after 48 hrs by sulforhodamine B assay; type: functional
SK-MEL-28 [7] = assay: Cytotoxicity against human SK-MEL-28 cells assessed as cell growth at 0.01 uM after 48 hrs by sulforhodamine B assay relative to control; type: functional; settings: SK-MEL-28, 48 h, read-out: Activity
SR [8] = assay: Cytotoxicity against human SR cells assessed as growth inhibition after 48 hrs by sulforhodamine B assay; type: functional
MDA-MB-435 = assay: Cytotoxicity against human MDA-MB-435 cells assessed as cell growth at 1 uM after 48 hrs by sulforhodamine B assay relative to control; type: functional; settings: MDA-MB-435, 48 h, read-out: Activity
MOLT-4 = assay: Cytotoxicity against human MOLT4 cells assessed as cell growth at 1 uM after 48 hrs by sulforhodamine B assay relative to control; type: functional; settings: MOLT-4, 48 h, read-out: Activity
M14 = assay: Cytotoxicity against human M14 cells assessed as cell growth at 100 uM after 48 hrs by sulforhodamine B assay relative to control; type: functional; settings: M14, 48 h, read-out: Activity
A549 = assay: Cytotoxicity against human A549/ATCC cells assessed as cell growth at 0.1 uM after 48 hrs by sulforhodamine B assay relative to control; type: functional; settings: A549, 48 h, read-out: Activity
TK-10 [9] = assay: Cytotoxicity against human TK10 cells assessed as cell growth at 0.01 uM after 48 hrs by sulforhodamine B assay relative to control; type: functional; settings: TK-10, 48 h, read-out: Activity
U-251 [10] = assay: Cytotoxicity against human U251 cells assessed as cell growth at 0.01 uM after 48 hrs by sulforhodamine B assay relative to control; type: functional; settings: U-251, 48 h, read-out: Activity
TK-10 [11] = assay: Cytotoxicity against human TK10 cells assessed as cell growth at 10 uM after 48 hrs by sulforhodamine B assay relative to control; type: functional; settings: TK-10, 48 h, read-out: Activity
SN12C [12] = assay: Cytotoxicity against human SN12C cells assessed as cell growth at 0.1 uM after 48 hrs by sulforhodamine B assay relative to control; type: functional; settings: read-out: Activity
BT-549 [13] = assay: Cytotoxicity against human BT549 cells assessed as cell growth at 0.01 uM after 48 hrs by sulforhodamine B assay relative to control; type: functional; settings: BT-549, 48 h, read-out: Activity
U-251 [14] = assay: Cytotoxicity against human U251 cells assessed as cell growth at 1 uM after 48 hrs by sulforhodamine B assay relative to control; type: functional; settings: U-251, 48 h, read-out: Activity
MDA-MB-468 = assay: Cytotoxicity against human MDA-MB-468 cells assessed as cell growth at 0.01 uM after 48 hrs by sulforhodamine B assay relative to control; type: functional; settings: MDA-MB-468, 48 h, read-out: Activity
SN12C [15] = assay: Cytotoxicity against human SN12C cells assessed as cell growth at 10 uM after 48 hrs by sulforhodamine B assay relative to control; type: functional; settings: read-out: Activity
A498 = assay: Cytotoxicity against human A498 cells assessed as cell growth at 10 uM after 48 hrs by sulforhodamine B assay relative to control; type: functional; settings: A498, 48 h, read-out: Activity
CCRF-CEM [16] = assay: Cytotoxicity against human CCRF-CEM cells assessed as cell growth at 0.01 uM after 48 hrs by sulforhodamine B assay relative to control; type: functional; settings: read-out: Activity
K562 = assay: Cytotoxicity against human K562 cells assessed as cell growth at 1 uM after 48 hrs by sulforhodamine B assay relative to control; type: functional; settings: K562, 48 h, read-out: Activity
Hs-578T = assay: Cytotoxicity against human Hs 578T cells assessed as cell growth at 0.01 uM after 48 hrs by sulforhodamine B assay relative to control; type: functional; settings: read-out: Activity
MDA-MB-231 [17] = assay: Cytotoxicity against human MDA-MB-231 cells assessed as cell growth at 0.01 uM after 48 hrs by sulforhodamine B assay relative to control; type: functional; settings: MDA-MB-231, 48 h, read-out: Activity
OVCAR-4 = assay: Cytotoxicity against human OVCAR4 cells assessed as cell growth at 10 uM after 48 hrs by sulforhodamine B assay relative to control; type: functional; settings: OVCAR-4, 48 h, read-out: Activity
SR [18] = assay: Cytotoxicity against human SR cells assessed as cell growth at 0.01 uM after 48 hrs by sulforhodamine B assay relative to control; type: functional; settings: read-out: Activity
TK-10 [19] = assay: Cytotoxicity against human TK10 cells assessed as cell growth at 0.1 uM after 48 hrs by sulforhodamine B assay relative to control; type: functional; settings: TK-10, 48 h, read-out: Activity
NCI-H322M = assay: Cytotoxicity against human NCI-H322M cells assessed as growth inhibition after 48 hrs by sulforhodamine B assay; type: functional
RXF 393 [20] = assay: Cytotoxicity against human RXF393 cells assessed as cell growth at 0.1 uM after 48 hrs by sulforhodamine B assay relative to control; type: functional; settings: RXF 393, 48 h, read-out: Activity
U-251 [21] = assay: Cytotoxicity against human U251 cells assessed as cell growth at 10 uM after 48 hrs by sulforhodamine B assay relative to control; type: functional; settings: U-251, 48 h, read-out: Activity
[22] = read-out: LC50 (the source's name)

COc1ccc(-c2cc(/C=C/C(=O)c3ccc(OC)c(OC)c3)[nH]n2)cc1 was tested. Which growth at 100 µM (BT-549 [1]) did it give?
Its growth at 100 µM is -99%.

What about the growth at 10 µM (SNB-19) of the same compound?
Its growth at 10 µM is -31%.

And the growth at 0.1 µM (SK-MEL-28 [2])?
The growth at 0.1 µM was 98%.

What about the GI50 (UO-31) of the same compound?
The GI50 was 1.17 µM.

What about the LC50 (UO-31) of the same compound?
Its LC50 is 5.1 µM.

And the TGI (UO-31)?
Its TGI is 2.44 µM.

And the growth at 1 µM (CCRF-CEM [3])?
Its growth at 1 µM is 63%.

What about the growth at 10 µM (HT-29) of the same compound?
Its growth at 10 µM is -66%.

What about the IC50 (MDA-MB-231 [4]) of the same compound?
Its IC50 is 0.6 µM.

And the growth at 1 µM (HL-60(TB))?
The growth at 1 µM was 86%.

And the growth at 1 µM (SK-MEL-28 [5])?
Its growth at 1 µM is 90%.

What about the GI50 (UACC-257) of the same compound?
Its GI50 is 1.73 µM.

And the LC50 (UACC-257)?
Its LC50 is 7.72 µM.

What about the TGI (UACC-257) of the same compound?
Its TGI is 3.65 µM.

And the growth at 100 µM (RXF 393 [6])?
Its growth at 100 µM is -92%.

And the GI50 (Malme-3M)?
Its GI50 is 1.62 µM.

And the LC50 (Malme-3M)?
Its LC50 is 7.38 µM.

What about the TGI (Malme-3M) of the same compound?
Its TGI is 3.45 µM.

What about the growth at 0.01 µM (SK-MEL-28 [7]) of the same compound?
The growth at 0.01 µM was 101%.

And the GI50 (SR [8])?
The GI50 was 0.67 µM.

What about the TGI (SR [8]) of the same compound?
The TGI was 3.74 µM.

And the CC50 (SR [8]; [22])?
Its CC50 is over 100 µM.

What about the growth at 1 µM (MDA-MB-435) of the same compound?
Its growth at 1 µM is 91%.

What about the growth at 1 µM (MOLT-4) of the same compound?
Its growth at 1 µM is 95%.

What about the growth at 100 µM (M14) of the same compound?
Its growth at 100 µM is -99%.

And the growth at 0.1 µM (A549)?
Its growth at 0.1 µM is 90%.

And the growth at 0.01 µM (TK-10 [9])?
The growth at 0.01 µM was 100%.

And the growth at 0.01 µM (U-251 [10])?
Its growth at 0.01 µM is 95%.

What about the growth at 10 µM (TK-10 [11]) of the same compound?
Its growth at 10 µM is -59%.

And the growth at 0.1 µM (SN12C [12])?
The growth at 0.1 µM was 93%.

And the growth at 0.01 µM (BT-549 [13])?
Its growth at 0.01 µM is 100%.

And the growth at 1 µM (U-251 [14])?
Its growth at 1 µM is 57%.

What about the growth at 0.01 µM (MDA-MB-468) of the same compound?
Its growth at 0.01 µM is 87%.

What about the growth at 10 µM (SN12C [15]) of the same compound?
Its growth at 10 µM is -58%.

And the growth at 10 µM (A498)?
The growth at 10 µM was -57%.

What about the growth at 0.01 µM (CCRF-CEM [16]) of the same compound?
The growth at 0.01 µM was 102%.

What about the growth at 1 µM (K562) of the same compound?
Its growth at 1 µM is 56%.

And the growth at 0.01 µM (Hs-578T)?
Its growth at 0.01 µM is 96%.

And the growth at 0.01 µM (MDA-MB-231 [17])?
The growth at 0.01 µM was 98%.

And the growth at 10 µM (OVCAR-4)?
The growth at 10 µM was -27%.

What about the growth at 0.01 µM (SR [18]) of the same compound?
The growth at 0.01 µM was 100%.

And the growth at 0.1 µM (TK-10 [19])?
Its growth at 0.1 µM is 102%.

What about the GI50 (NCI-H322M) of the same compound?
The GI50 was 1.62 µM.

What about the TGI (NCI-H322M) of the same compound?
Its TGI is 4.92 µM.

And the CC50 (NCI-H322M; [22])?
Its CC50 is 18.7 µM.

And the growth at 0.1 µM (RXF 393 [20])?
Its growth at 0.1 µM is 93%.

What about the growth at 10 µM (U-251 [21]) of the same compound?
Its growth at 10 µM is -97%.
